# Experimental data published in patent US20020111274A1, “1-alkyl-3-[1-(substituted phenyl) benzotriazol-6-yl] uracils” (BASF Aktiengesellschaft, priority 2000, published 2002).
# How the values were obtained:
# Set-up in all cases: scale not given here
# ZEAMX Corn, Field [1] = assay: Postemergence herbicidal evaluation, ZEAMX; assay type: in vivo, Zea mays, L. (Sammel-Bezeichnung); conditions: 0.062 kg/ha, postemergence spray, rated about two-three weeks after treatment
# Procedure: In this evaluation, seedling plants are grown in jiffy flats for about two weeks. The test compounds are dispersed in 80/20 acetone/water mixtures containing 1.0% SUN-IT® II, a methylated seed oil, in sufficient quantities to provide the equivalent of about 0.006 kg to 0.400 kg per hectare of active compound when applied to the plants through a spray nozzle operating at 40 psi for a predetermined time. After spraying, the plants are placed on greenhouse benches and are cared for in accordance with conventional greenhouse procedures. Approximately two - three weeks after treatment, the seedling plants are examined and rated according to the rating system set forth below. Where more than one test is involved for a given compound, the data are averaged.
# ABUTH Velvetleaf = assay: Preemergence herbicidal evaluation, ABUTH; assay type: in vivo, Abutilon theophrasti, Medic.; conditions: preemergence
# Description: (§1) The preemergence herbicidal activity of the test compounds of the present invention is exemplified by the following tests in which the seeds of a variety of monocotyledonous and dicotyledonous plants are separately mixed with potting soil and planted on top of approximately one inch of soil in separate pint cups. […] The treated cups are then placed on greenhouse benches, watered and cared for in accordance with conventional greenhouse procedures. From four to five weeks after treatment, the tests are terminated and each cup is examined and rated according to the rating system provided in Example 46.
# AMBEL Ragweed, Common = assay: Preemergence herbicidal evaluation, AMBEL; assay type: in vivo, Ambrosia artemisifolia, L.; conditions: preemergence
# Description: as §1
# CASOB Sicklepod = assay: Preemergence herbicidal evaluation, CASOB; assay type: in vivo, Cassia obtusifolia, L.; conditions: preemergence
# Description: as §1
# [2] = test system: CHEAL Lambsquarters, Common; assay: Preemergence herbicidal evaluation, CHEAL; assay type: in vivo, Chenopodium album, L.; conditions: preemergence
# Description: as §1
# ECHOG Barnyardgrass = assay: Preemergence herbicidal evaluation, ECHOG; assay type: in vivo, Echinochloa crus-galli, (L.) Beau; conditions: preemergence
# Description: as §1
# GALAP Galium = assay: Preemergence herbicidal evaluation, GALAP; assay type: in vivo, Galium aparine; conditions: preemergence
# Description: as §1
# [3] = test system: IPOHE Morningglory, Ivyleaf; assay: Preemergence herbicidal evaluation, IPOHE; assay type: in vivo, Ipomoea hederacea, (L.) Jacq.; conditions: preemergence
# Description: as §1
# SETVI Foxtail, Green = assay: Preemergence herbicidal evaluation, SETVI; assay type: in vivo, Setaria viridis, (L.) Beau; conditions: preemergence
# Description: as §1
# GLXMAW Soybean, Williams = assay: Preemergence herbicidal evaluation, GLXMAW; assay type: in vivo, Glycine max, (L.) Merr. cv Williams; conditions: preemergence
# Description: as §1
# [4] = test system: TRZAWR Wheat, Winter, cv Riband; assay: Preemergence herbicidal evaluation, TRZAWR; assay type: in vivo, Triticum aestivum; conditions: preemergence
# Description: as §1
# ORYSAT Rice, Tebonnet = assay: Preemergence herbicidal evaluation, ORYSAT; assay type: in vivo, Oryza sativa, (L.); conditions: preemergence
# Description: as §1
# ZEAMX Corn, Field [5] = assay: Preemergence herbicidal evaluation, ZEAMX; assay type: in vivo, Zea mays, L. (Sammel-Bezeichnung); conditions: preemergence
# Description: as §1
compound,measurement,setting,value
Cc1ccc(OCC(=O)O)cc1-n1nnc2cc(F)c(-n3c(=O)cc(C(F)(F)F)n(C)c3=O)cc21 [Example 37],Postemergence herbicidal rating ZEAMX,"ZEAMX Corn, Field [1]",8.0
same,ABUTH herbicidal rating,ABUTH Velvetleaf; rate 0.016 kg/ha,0.0
same,ABUTH herbicidal rating,ABUTH Velvetleaf; rate 0.032 kg/ha,0.0
same,ABUTH herbicidal rating,ABUTH Velvetleaf; rate 0.062 kg/ha,9.0
same,ABUTH herbicidal rating,ABUTH Velvetleaf; rate 0.125 kg/ha,9.0
same,AMBEL herbicidal rating,"AMBEL Ragweed, Common; rate 0.016 kg/ha",0.0
same,AMBEL herbicidal rating,"AMBEL Ragweed, Common; rate 0.032 kg/ha",0.0
same,AMBEL herbicidal rating,"AMBEL Ragweed, Common; rate 0.062 kg/ha",0.0
same,AMBEL herbicidal rating,"AMBEL Ragweed, Common; rate 0.125 kg/ha",3.0
same,CASOB herbicidal rating,CASOB Sicklepod; rate 0.016 kg/ha,0.0
same,CASOB herbicidal rating,CASOB Sicklepod; rate 0.032 kg/ha,0.0
same,CASOB herbicidal rating,CASOB Sicklepod; rate 0.062 kg/ha,0.0
same,CASOB herbicidal rating,CASOB Sicklepod; rate 0.125 kg/ha,0.0
same,CHEAL herbicidal rating,[2]; rate 0.062 kg/ha,0.0
same,CHEAL herbicidal rating,[2]; rate 0.125 kg/ha,9.0
same,ECHCG herbicidal rating,ECHOG Barnyardgrass; rate 0.016 kg/ha,0.0
same,ECHCG herbicidal rating,ECHOG Barnyardgrass; rate 0.032 kg/ha,0.0
same,ECHCG herbicidal rating,ECHOG Barnyardgrass; rate 0.062 kg/ha,0.0
same,ECHCG herbicidal rating,ECHOG Barnyardgrass; rate 0.125 kg/ha,0.0
same,GALAP herbicidal rating,GALAP Galium; rate 0.016 kg/ha,0.0
same,GALAP herbicidal rating,GALAP Galium; rate 0.032 kg/ha,0.0
same,GALAP herbicidal rating,GALAP Galium; rate 0.062 kg/ha,0.0
same,GALAP herbicidal rating,GALAP Galium; rate 0.125 kg/ha,0.0
same,IPOHE herbicidal rating,[3]; rate 0.016 kg/ha,0.0
same,IPOHE herbicidal rating,[3]; rate 0.032 kg/ha,0.0
same,IPOHE herbicidal rating,[3]; rate 0.062 kg/ha,0.0
same,IPOHE herbicidal rating,[3]; rate 0.125 kg/ha,5.0
same,SETVI herbicidal rating,"SETVI Foxtail, Green; rate 0.016 kg/ha",0.0
same,SETVI herbicidal rating,"SETVI Foxtail, Green; rate 0.032 kg/ha",0.0
same,SETVI herbicidal rating,"SETVI Foxtail, Green; rate 0.062 kg/ha",0.0
same,SETVI herbicidal rating,"SETVI Foxtail, Green; rate 0.125 kg/ha",8.0
same,GLXMAW herbicidal rating,"GLXMAW Soybean, Williams; rate 0.016 kg/ha",0.0
same,GLXMAW herbicidal rating,"GLXMAW Soybean, Williams; rate 0.032 kg/ha",0.0
same,GLXMAW herbicidal rating,"GLXMAW Soybean, Williams; rate 0.062 kg/ha",0.0
same,GLXMAW herbicidal rating,"GLXMAW Soybean, Williams; rate 0.125 kg/ha",0.0
same,TRZAWR herbicidal rating,[4]; rate 0.016 kg/ha,0.0
same,TRZAWR herbicidal rating,[4]; rate 0.032 kg/ha,0.0
same,TRZAWR herbicidal rating,[4]; rate 0.062 kg/ha,0.0
same,TRZAWR herbicidal rating,[4]; rate 0.125 kg/ha,0.0
same,ORYSAT herbicidal rating,"ORYSAT Rice, Tebonnet; rate 0.016 kg/ha",0.0
same,ORYSAT herbicidal rating,"ORYSAT Rice, Tebonnet; rate 0.032 kg/ha",0.0
same,ORYSAT herbicidal rating,"ORYSAT Rice, Tebonnet; rate 0.062 kg/ha",0.0
same,ORYSAT herbicidal rating,"ORYSAT Rice, Tebonnet; rate 0.125 kg/ha",0.0
same,ZEAMX herbicidal rating,"ZEAMX Corn, Field [5]; rate 0.016 kg/ha",0.0
same,ZEAMX herbicidal rating,"ZEAMX Corn, Field [5]; rate 0.032 kg/ha",0.0
same,ZEAMX herbicidal rating,"ZEAMX Corn, Field [5]; rate 0.062 kg/ha",0.0
same,ZEAMX herbicidal rating,"ZEAMX Corn, Field [5]; rate 0.125 kg/ha",0.0
